Where two headings read alike, the source gives them in different places. Where only a bound is given, the exact number is not on record here.

The values that follow come from patent publication US11702429B2, “mTORC modulators and uses thereof” (Aeovian Pharmaceuticals, Inc., priority 2019, dated 2023).

Test [1] deals with T1, mTORC1 (Homo sapiens, UniProt P42345+P62942).
T1 construct: endogenous in cells; host or cells: PC3 cells (human prostate adenocarcinoma)
The test is described as follows: Inhibition assay for mTORC1: phosphorylation of pS6K at Thr389, AlphaLISA in PC3 cells. As to conditions: for IC50: read-out: pIC50 mTORC1 (converted). It counts as cell-based. On the procedure: (§1) The IC50s of the inhibition of mTORC1 and mTORC2 were determined in vitro by determining the phosphorylation of pS6K at position Thr389 (mTORC1 inhibition) and pAkt at Ser473 (mTORC2 inhibition). In vitro studies were performed with AlphaLISA® technology using PC3 cells (Prostate Adenocarcinoma; Human (Homo sapiens)). The cells were seeded in 96 well plates and were treated for 24 hours with the different compounds. […] All analysis were performed using GraphPad Prism 7.0 (GraphPad Software, San Diego, USA).
For orientation: Bead proximity is the source of the signal in Alpha formats.

The target of test [2] is T2, mTORC2 (Homo sapiens, UniProt P42345+P62942).
T2 construct: endogenous in cells; host or cells: PC3 cells (human prostate adenocarcinoma)
In words: Inhibition assay for mTORC2: phosphorylation of pAkt at Ser473, AlphaLISA in PC3 cells. It counts as cell-based. To be noted: for IC50: read-out: pIC50 mTORC2 (converted). On the procedure: as §1

The mark [3] stands for this setting: PC3 cells, treated 24 hours, pS6K Thr389, AlphaLISA, C16 diastereomer mixtures not separated.
Setting [4] is: PC3 cells, treated 24 hours, pAkt Ser473, AlphaLISA, C16 diastereomer mixtures not separated.

T2 sequence (P62942 2-108 limits assumed, other chains not shown): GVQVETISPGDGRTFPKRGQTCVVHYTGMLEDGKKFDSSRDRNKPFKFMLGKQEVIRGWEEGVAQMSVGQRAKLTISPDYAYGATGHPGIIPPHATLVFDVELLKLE

As for `COC1C[C@@H]2CC[C@@H](C)[C@@](O)(O2)C(=O)C(=O)N2CCCCC2C(=O)O[C@H]([C@H](C)C[C@@H]2CC[C@@H](OC(=O)NCCO)[C@H](OC)C2)CC(=O)[C@H](C)/C=C(\C)[C@@H](O)[C@@H](OC)C(=O)[C@H](C)C[C@H](C)/C=C/C=C/C=C/1C` (stereo partly shown) [Compound 362], the IC50 in test [1] was under 0.316 nM; in test [2], under 1000 nM.
Consider `COC1C[C@@H]2CC[C@@H](C)[C@@](O)(O2)C(=O)C(=O)N2CCCCC2C(=O)O[C@H]([C@H](C)C[C@@H]2CC[C@@H](OC(=O)NCCCN3CCCCC3)[C@H](OC)C2)CC(=O)[C@H](C)/C=C(\C)[C@@H](O)[C@@H](OC)C(=O)[C@H](C)C[C@H](C)/C=C/C=C/C=C/1C` (stereo partly shown) [Compound 366], for which the IC50 in test [1] was over 3.16 nM; in test [2] it was 1000 to 10000 nM.
For `COC1C[C@@H]2CC[C@@H](C)[C@@](O)(O2)C(=O)C(=O)N2CCCCC2C(=O)O[C@H]([C@H](C)C[C@@H]2CC[C@@H](OC(=O)NCCCN(CCO)CCO)[C@H](OC)C2)CC(=O)[C@H](C)/C=C(\C)[C@@H](O)[C@@H](OC)C(=O)[C@H](C)C[C@H](C)/C=C/C=C/C=C/1C` (stereo partly shown) [Compound 358], in that order: under 0.316 nM and under 1000 nM.
Turning to `COCCOC1C[C@@H]2CC[C@@H](C)[C@@](O)(O2)C(=O)C(=O)N2CCCC[C@H]2C(=O)O[C@H]([C@H](C)C[C@@H]2CC[C@@H](OCCCN3CCN(C(C)C)CC3)[C@H](OC)C2)CC(=O)[C@H](C)/C=C(\C)[C@@H](O)[C@@H](OC)C(=O)[C@H](C)C[C@H](C)/C=C/C=C/C=C/1C` (mixture of isomers) [Compound 39], the figures for the IC50 in test [1] (setting [3]) and in test [2] (setting [4]) were under 0.316 nM and 1000 to 10000 nM, respectively.
In the same order, the values of `COCCOC1C[C@@H]2CC[C@@H](C)[C@@](O)(O2)C(=O)C(=O)N2CCCC[C@H]2C(=O)O[C@H]([C@H](C)C[C@@H]2CC[C@@H](OCCCN3CC4(COC4)C3)[C@H](OC)C2)CC(=O)[C@H](C)/C=C(\C)[C@@H](O)[C@@H](OC)C(=O)[C@H](C)C[C@H](C)/C=C/C=C/C=C/1C` (mixture of isomers) [Compound 26] are under 0.316 nM and over 10000 nM.
Consider `CO[C@@H]1C[C@H](C[C@@H](C)[C@@H]2CC(=O)[C@H](C)/C=C(\C)[C@@H](O)[C@@H](OC)C(=O)[C@H](C)C[C@H](C)/C=C/C=C/C=C(\C)C(OCc3ccccc3)C[C@@H]3CC[C@@H](C)[C@@](O)(O3)C(=O)C(=O)N3CCCCC3C(=O)O2)CC[C@H]1O` (stereo partly shown) [Compound 205], for which the IC50 in test [1] was under 0.316 nM; in test [2] it was under 1000 nM.
For the molecule `COCCOC1C[C@@H]2CC[C@@H](C)[C@@](O)(O2)C(=O)C(=O)N2CCCC[C@H]2C(=O)O[C@H]([C@H](C)C[C@@H]2CC[C@@H](OCCCN3CCC(C(C)(C)O)CC3)[C@H](OC)C2)CC(=O)[C@H](C)/C=C(\C)[C@@H](O)[C@@H](OC)C(=O)[C@H](C)C[C@H](C)/C=C/C=C/C=C/1C` (mixture of isomers) [Compound 74], the IC50 was under 0.316 nM in test [1] (setting [3]) and 1000 to 10000 nM in test [2] (setting [4]).
For `CO[C@@H]1C[C@H](C[C@@H](C)[C@@H]2CC(=O)[C@H](C)/C=C(\C)[C@@H](O)[C@@H](OC)C(=O)[C@H](C)C[C@H](C)/C=C/C=C/C=C(\C)C(OC3CC3)C[C@@H]3CC[C@@H](C)[C@@](O)(O3)C(=O)C(=O)N3CCCCC3C(=O)O2)CC[C@H]1O` (stereo partly shown) [Compound 209], the values for the IC50 in test [1] and in test [2] were under 0.316 nM and under 1000 nM, respectively.
For the molecule `COC1C[C@@H]2CC[C@@H](C)[C@@](O)(O2)C(=O)C(=O)N2CCCCC2C(=O)O[C@H]([C@H](C)C[C@@H]2CC[C@@H](OCCOCCOCCO)[C@H](OC)C2)CC(=O)[C@H](C)/C=C(\C)[C@@H](O)[C@@H](OC)C(=O)[C@H](C)C[C@H](C)/C=C/C=C/C=C/1C` (stereo partly shown) [Compound 317], the IC50 in test [1] is under 0.316 nM; in test [2] it was under 1000 nM.
`CO[C@@H]1C[C@H](C[C@@H](C)[C@@H]2CC(=O)[C@H](C)/C=C(\C)[C@@H](O)[C@@H](OC)C(=O)[C@H](C)C[C@H](C)/C=C/C=C/C=C(\C)C(OCCCCO)C[C@@H]3CC[C@@H](C)[C@@](O)(O3)C(=O)C(=O)N3CCCC[C@H]3C(=O)O2)CC[C@H]1OCCCN1CCOCC1` (mixture of isomers) [Compound 27]: the IC50 in test [1] (setting [3]) is under 0.316 nM; in test [2] (setting [4]), 1000 to 10000 nM.
Regarding `CO[C@@H]1C[C@H](C[C@@H](C)[C@@H]2CC(=O)[C@H](C)/C=C(\C)[C@@H](O)[C@@H](OC)C(=O)[C@H](C)C[C@H](C)/C=C/C=C/C=C(\C)C(OCCO)C[C@@H]3CC[C@@H](C)[C@@](O)(O3)C(=O)C(=O)N3CCCCC3C(=O)O2)CC[C@H]1OCCCN1C[C@@H](C)O[C@@H](C)C1` (stereo partly shown) [Compound 18], the “pIC50 mTORC1” value in test [1] (setting [3]) is listed as “A (pIC50 for mTORC1 of >9.5 as A)”. For the same molecule, the “pIC50 mTORC2” value in test [2] (setting [4]) is listed as “A (PIC50 for mTORC2 of <5 as A)”.
For the molecule `COC1C[C@@H]2CC[C@@H](C)[C@@](O)(O2)C(=O)C(=O)N2CCCCC2C(=O)O[C@H]([C@H](C)C[C@@H]2CC[C@@H](OC(=O)NCCc3ccncc3)[C@H](OC)C2)CC(=O)[C@H](C)/C=C(\C)[C@@H](O)[C@@H](OC)C(=O)[C@H](C)C[C@H](C)/C=C/C=C/C=C/1C` (stereo partly shown) [Compound 334], the IC50 is under 0.316 nM in test [1] and under 1000 nM in test [2].
Turning to `COC1C[C@@H]2CC[C@@H](C)[C@@](O)(O2)C(=O)C(=O)N2CCCCC2C(=O)O[C@H]([C@H](C)C[C@@H]2CC[C@@H](OC(=O)NCc3ccccc3)[C@H](OC)C2)CC(=O)[C@H](C)/C=C(\C)[C@@H](O)[C@@H](OC)C(=O)[C@H](C)C[C@H](C)/C=C/C=C/C=C/1C` (stereo partly shown) [Compound 355], the IC50 was under 0.316 nM in test [1] and under 1000 nM in test [2].
In the same order, the values of `COC1C[C@@H]2CC[C@@H](C)[C@@](O)(O2)C(=O)C(=O)N2CCCCC2C(=O)O[C@H]([C@H](C)C[C@@H]2CC[C@@H](OCc3ccccc3)[C@H](OC)C2)CC(=O)[C@H](C)/C=C(\C)[C@@H](O)[C@@H](OC)C(=O)[C@H](C)C[C@H](C)/C=C/C=C/C=C/1C` (stereo partly shown) [Compound 305] are under 0.316 nM and under 1000 nM.
For `COC1C[C@@H]2CC[C@@H](C)[C@@](O)(O2)C(=O)C(=O)N2CCCCC2C(=O)O[C@H]([C@H](C)C[C@@H]2CC[C@@H](OCCOCCOCCOCCOCCO)[C@H](OC)C2)CC(=O)[C@H](C)/C=C(\C)[C@@H](O)[C@@H](OC)C(=O)[C@H](C)C[C@H](C)/C=C/C=C/C=C/1C` (stereo partly shown) [Compound 350], in that order: under 0.316 nM and under 1000 nM.
Consider `CO[C@@H]1C[C@H](C[C@@H](C)[C@@H]2CC(=O)[C@H](C)/C=C(\C)[C@@H](O)[C@@H](OC)C(=O)[C@H](C)C[C@H](C)/C=C/C=C/C=C(\C)C(OCC(C)(C)O)C[C@@H]3CC[C@@H](C)[C@@](O)(O3)C(=O)C(=O)N3CCCCC3C(=O)O2)CC[C@H]1O` (stereo partly shown) [Compound 216], for which the results for the IC50 in test [1] and in test [2] were 0.316 to 3.16 nM and 1000 to 10000 nM, respectively.
In the same order, the values of `COCCOC1C[C@@H]2CC[C@@H](C)[C@@](O)(O2)C(=O)C(=O)N2CCCCC2C(=O)O[C@H]([C@H](C)C[C@@H]2CC[C@@H](O)[C@H](OC)C2)CC(=O)[C@H](C)/C=C(\C)[C@@H](O)[C@@H](OC)C(=O)[C@H](C)C[C@H](C)/C=C/C=C/C=C/1C` (stereo partly shown) [Compound 220] are under 0.316 nM and 1000 to 10000 nM.
On to `CO[C@@H]1C[C@H](C[C@@H](C)[C@@H]2CC(=O)[C@H](C)/C=C(\C)[C@@H](O)[C@@H](OC)C(=O)[C@H](C)C[C@H](C)/C=C/C=C/C=C(\C)C(OCCCCO)C[C@@H]3CC[C@@H](C)[C@@](O)(O3)C(=O)C(=O)N3CCCCC3C(=O)O2)CC[C@H]1O` (stereo partly shown) [Compound 221], for which the IC50 in test [1] is under 0.316 nM; in test [2], 1000 to 10000 nM.
For the molecule `COC1C[C@@H]2CC[C@@H](C)[C@@](O)(O2)C(=O)C(=O)N2CCCCC2C(=O)O[C@H]([C@H](C)C[C@@H]2CC[C@@H](OC(=O)N(CCO)CCO)[C@H](OC)C2)CC(=O)[C@H](C)/C=C(\C)[C@@H](O)[C@@H](OC)C(=O)[C@H](C)C[C@H](C)/C=C/C=C/C=C/1C` (stereo partly drawn) [Compound 357, [(1R,2R,4S)-4-[(2R)-2-[(1R,9S,12S,15R,16E,18R,19R,21R,23S,24E,26E,28E,30S,32S,35R)-1,18-dihydroxy-19,30-dimethoxy-15,17,21,23,29,35-hexamethyl-2,3,10,14,20-pentaoxo-11,36-dioxa-4-azatricyclo[30.3.1.0^4,9]hexatriaconta-16,24,26,28-tetraen-12-yl]propyl]-2-methoxy-cyclohexyl] N,N-bis(2-hydroxyethyl)carbamate], the results for the IC50 in test [1] and in test [2] were under 0.316 nM and under 1000 nM, respectively.
For `COC1C[C@@H]2CC[C@@H](C)[C@@](O)(O2)C(=O)C(=O)N2CCCCC2C(=O)O[C@H]([C@H](C)C[C@@H]2CC[C@@H](OCCCN3CCCCC3)[C@H](OC)C2)CC(=O)[C@H](C)/C=C(\C)[C@@H](O)[C@@H](OC)C(=O)[C@H](C)C[C@H](C)/C=C/C=C/C=C/1C` (stereo partly shown) [Compound 341], in that order: under 0.316 nM and under 1000 nM.
In the same order, the values of `CO[C@@H]1C[C@H](C[C@@H](C)[C@@H]2CC(=O)[C@H](C)/C=C(\C)[C@@H](O)[C@@H](OC)C(=O)[C@H](C)C[C@H](C)/C=C/C=C/C=C(\C)C(O[C@H](CO)c3ccccc3)C[C@@H]3CC[C@@H](C)[C@@](O)(O3)C(=O)C(=O)N3CCCCC3C(=O)O2)CC[C@H]1O` (stereo partly shown) [Compound 204] are under 0.316 nM and under 1000 nM.
Regarding `CO[C@@H]1C[C@H](C[C@@H](C)[C@@H]2CC(=O)[C@H](C)/C=C(\C)[C@@H](O)[C@@H](OC)C(=O)[C@H](C)C[C@H](C)/C=C/C=C/C=C(\C)C(OCCO)C[C@@H]3CC[C@@H](C)[C@@](O)(O3)C(=O)C(=O)N3CCCC[C@H]3C(=O)O2)CC[C@H]1OCCCN1CCO[C@H](C)C1` (mixture of isomers) [Compound 13], in test [1] (setting [3]), the IC50 is under 0.316 nM.
